Key:
[1] = Selectivity index, ratio of IC50 for COX-2 (unknown origin) to IC50 for COX-1 (unknown origin)
Ovis aries = organism: Ovis aries; experiment: Selectivity index, ratio of IC50 for inhibition of ovine COX-1 to IC50 for inhibition of ovine COX-2
Rattus norvegicus [2] = experiment: Antiinflammatory activity in formalin-induced paw edema in Wistar albino rat model assessed as reduction in paw edema volume at 18 mg/kg, po administered once daily via gavage by 7 days; type: functional; set-up: scale not given: the % may be the effect or the level left; conditions: time 7 day
Rattus norvegicus [3] = experiment: Acute ulcerogenic activity in Albino Wistar rat assessed as ulcer index at 18 mg/kg via oral gavage once daily for 3 days; type: toxicity, organism-based; conditions: in vivo, 72 h, time 3 day
[4] = Inhibition of soya bean 15-LOX by enzyme immune assay; set-up: species or system Glycine max

COc1ccc2cc(C(C)C(=O)O/N=C(\N)c3ccc(OC)c(OC)c3)ccc2c1 (configuration not stated)
Ratio IC50 [1]: 13

CCOC(=O)c1cnn(C(=O)c2cnn(-c3ccc(S(C)(=O)=O)cc3)c2N)c1N
Ratio IC50 (Ovis aries): 247

COc1ccc(/C(N)=N/OC(=O)C(C)c2ccc3cc(OC)ccc3c2)cc1 (configuration not stated)
Ratio IC50 [1]: 13

Cc1cc(C)n(C(=O)c2cnn(-c3ccc(S(C)(=O)=O)cc3)c2N)n1
Ratio IC50 (Ovis aries): 247

CSc1nn(C(=O)c2cnn(-c3ccc(S(C)(=O)=O)cc3)c2N)c(N)c1C#N
Ratio IC50 (Ovis aries): 247

CCCn1c(-c2ccc(Cl)cc2)cs/c1=N\NC(=O)Cn1nc(C)cc1C
Activity (Rattus norvegicus [2]): 97.3%

COc1ccc(-n2c(-c3ccc(C)cc3)cs/c2=N\NC(=O)Cn2nc(C)cc2-c2ccc(Cl)cc2)cc1
UI (Rattus norvegicus [3]): 0

CCOC(=O)c1cnn(C(=O)c2c(C)nn(-c3ccc(S(C)(=O)=O)cc3)c2N)c1N
Ratio IC50 (Ovis aries): 247

CCOC(=O)c1c(C)nn(C(=O)c2cnn(-c3ccc(S(C)(=O)=O)cc3)c2N)c1N
Ratio IC50 (Ovis aries): 247

CSc1nn(C(=O)c2c(C)nn(-c3ccc(S(N)(=O)=O)cc3)c2N)c(N)c1C#N
Ratio IC50 (Ovis aries): 247

Cc1ccc(Cl)c(Nc2ccccc2C(=O)O)c1Cl
IC50 [4]: 5.64 µM

COc1ccc2cc(C(C)C(=O)O/N=C(\N)c3ccc(Cl)cc3)ccc2c1 (configuration not stated)
Ratio IC50 [1]: 13

From ChEMBL document CHEMBL6092136, “Design, classification, and adverse effects of NSAIDs: A review on recent advancements” (Bioorg Med Chem, 2024)
